Patent EP1064002B9, “USE OF SPHINGOSIN-1-PHOSPHATE, SPHINGOSIN-1-PHOSPHATE DERIVATIVES AND/OR MIXTURES THEREOF FOR THE TREATMENT OF INFLAMMATORY DISEASES OF THE SKIN” (Dermapharm AG, priority 1998, dated 1999)

How the values were obtained:
Format in all cases: cell-based
[1] = system: Keratinozyten; assay: Keratinocyte proliferation in KGM, [3H]-thymidine incorporation into DNA; settings: 4-day treatment; for Proliferation von Keratinozyten ([^3H]-Thymidineinbau in die DNA): 1-10 µM
Experimental: (§1) Die Proliferation von Keratinozyten wurde in Gegenwart von 1-10 µM von Sphingolipid-Derivaten untersucht. Nach 4-tägiger Behandlung mit verschiedenen Sphingolipiden wurde in der logarithmischen Wachstumsphase der Keratinozyten der [^3H]-Thymidineinbau in die DNA gemessen. […] Eine Proliferationshemmung tritt bereits bei einer Konzentration von 1 µM ein, 10 µM SPP reduzierten den Thymidineinbau um ca. 63,1 % (Abb. 1). […] Anhand des MTT-Tests wurde die Zellvitalität in Gegenwart von 1-25 µM SPP untersucht, bis 10 µM wirkten die Substanzen nicht toxisch. […] Dies zeigten mikroskopische Untersuchungen, der MTT-Test als auch durchflußzytometrische Untersuchungen zu Apoptose und Nekrose.

[2] = system: Keratinozyten; assay: Keratinocyte proliferation in keratinocyte basal medium (KBM) without supplements
Source text: Die Versuche wurden auch in "keratinocyte basal medium" (KBM), ohne Supplemente), an kultivierten Keratinozyten durchgeführt. Damit konnte festgestellt werden, daß SPP bzw. […] DMS und C2C wirkten auch in diesem Medium toxisch.

[3] = Fibroblast proliferation, non-stimulated cells in serum-free medium (DMEM without FKS); settings: human, fibroblasts, read-out: Konzentrationen mit ausgeprägter Toxizität an Fibroblasten
Source text: (§2) Das Wachstumsverhalten menschlicher. Fibroblasten in Gegenwart der Testsubstanzen wurde an nicht stimulierten Zellen verfolgt, die in serumfreiem Medium (nach Dulbecco modifiziertes Earle-Medium (DMEM) ohne fetales Kälber-Serum (FKS)) kultiviert wurden.

[4] = system: Fibroblasten; assay: as above
Source text: as §2

[5] = system: Keratinozyten; assay: Keratinocyte differentiation, transglutaminase activity
Source text: Nachdem gezeigt worden war, daß SPP die Proliferation von Keratinozyten hemmt, ohne daß damit eine vermehrte Toxizität verbunden ist, wurde der Differenzierungsgrad der Zellen nach Einwirkung der Sphingolipid-Derivate untersucht.

[6] = Keratinocyte viability/toxicity: MTT test, microscopy, flow cytometry for apoptosis and necrosis; settings: keratinocytes; tested at 1-25 µM; read-out: Zellvitalität (MTT-Test): nicht toxisch bis
Experimental: as §1

SMILES | Proliferation von Keratinozyten ([^3H]-Thymidineinbau in die DNA) [1] | Toxizität an Keratinozyten [2] | MCC [3] [µM] | Differenzierung von Keratinozyten (Transglutaminase-Aktivität) [5] | antiproliferative effect compared with another substance [1] | mitogene Effekte an Keratinozyten [2] | Proliferation von Fibroblasten ([4]; concentration-dependent) | Zunahme der Differenzierung von Keratinozyten compared with Calcitriol D3 [5] | further results
CCCCCCCCCCCCC/C=C/[C@@H](O)[C@H](CO)NC(C)=O [C2C, C2-Ceramid] | hemmten zwar ebenso den Thymidineinbau | toxisch | ≥ 5 |  |  |  |  |  | Proliferation von Fibroblasten ([4]; low concentrations): sehr geringe proliferationsfördernde Wirkung
C=C1/C(=C\C=C2/CCC[C@]3(C)[C@@H]([C@H](C)CCCC(C)(C)O)CC[C@@H]23)C[C@@H](O)C[C@@H]1O [Calcitriol] |  |  |  | ebenfalls eine Differenzierung fördert |  |  |  |  | 
CCCCCCCCCCCCC/C=C/[C@@H](O)[C@H](CO)N(C)C [DMS, Dimethylsphingosin] |  | toxisch | ≥ 5 |  |  |  |  |  | 
CCCCCCCCCCCCC/C=C/[C@@H](O)[C@@H](N)CO [SPH, Sphingosin] | wachstumshemmende Wirkung |  |  | die Differenzierung von Keratinozyten förderten | schwächer ausgeprägt als bei SPP | keine mitogenen Effekte | konzentrationsabhängig stark' stimuliert | durchaus vergleichbar | Wirkstärke (Teilungsaktivität bei Fibroblasten) compared with SPP [4]: niedriger als bei SPP; toxische Effekte an Fibroblasten ([4]; 10 µM): toxische Effekte
CCCCCCCCCCCCC/C=C/[C@@H](O)[C@@H](N)COP(=O)(O)O [SPP, Sphingosin-1-Phosphat] | stark proliferationshemmend |  |  | die Differenzierung von Keratinozyten förderten | ebenso potent wie Calcipotriol D3 | keine mitogenen Effekte | konzentrationsabhängig stark' stimuliert | durchaus vergleichbar | inhibition at 10 µM ([1]; Keratinocyte, 96 h, 10 µM, logarithmic growth phase, read-out: reduzierten den Thymidineinbau um): ~63.1%; minimal effective concentration ([1]; Keratinocyte, 96 h, read-out: Konzentration, bei der eine Proliferationshemmung bereits eintritt): 1 µM; MNTC [6]: ≤ 10 µM; Proliferation von Fibroblasten ([4]; 1 µM): wahrnehmbare Proliferationszunahme; fold induction at 10 µM ([4]; Fibroblast, 10 µM, read-out: höchste Aktivität (Proliferation von Fibroblasten)): ~6.5
